Calls of active or inactive are those of the source. The calls are words filed in the database; no cut-off is given here.
Assays:
Mythimna separata [1] = experiment: In vivo insecticidal activity against pre-third-instar larval stage of Mythimna separata (Oriental armyworm) in corn leaves assessed as corrected mortality rate at 1 mg/ml treated for 3 secs before larval infestation on corn leaves measured after 20 days by leaf-dipping method; type: functional; settings: 480 h
Mythimna separata [2] = experiment: In vivo insecticidal activity against pre-third-instar larval stage of Mythimna separata (Oriental armyworm) in corn leaves assessed as corrected mortality rate at 1 mg/ml treated for 3 secs before larval infestation on corn leaves measured after 10 days by leaf-dipping method; type: functional; settings: 240 h
Mythimna separata [3] = experiment: In vivo insecticidal activity against pre-third-instar larval stage of Mythimna separata (Oriental armyworm) in corn leaves assessed as inhibition of larval pupation at 1 mg/ml treated for 3 secs before larval infestation on corn leaves by leaf-dipping method; type: functional, organism-based
Mythimna separata [4] = experiment: In vivo insecticidal activity against pre-third-instar larval stage of Mythimna separata (Oriental armyworm) in corn leaves assessed as induction of molting to abnormal pupae at 1 mg/ml treated for 3 secs before larval infestation on corn leaves by leaf-dipping method; type: functional, organism-based
Mythimna separata [5] = experiment: In vivo insecticidal activity against pre-third-instar larval stage of Mythimna separata (Oriental armyworm) in corn leaves assessed as reduction in larval movement at 1 mg/ml treated for 3 secs before larval infestation on corn leaves measured after 24 hr by leaf-dipping method; type: functional, organism-based
Mythimna separata [6] = experiment: In vivo insecticidal activity against pre-third-instar larval stage of Mythimna separata (Oriental armyworm) in corn leaves assessed as inhibition of adult emergence at 1 mg/ml treated for 3 secs before larval infestation on corn leaves by leaf-dipping method; type: functional, organism-based
Mythimna separata [7] = experiment: In vivo insecticidal activity against pre-third-instar larval stage of Mythimna separata (Oriental armyworm) in corn leaves assessed as corrected mortality rate at 1 mg/ml treated for 3 secs before larval infestation on corn leaves measured after 33 days by leaf-dipping method; type: functional; settings: 792 h
Mythimna separata [8] = experiment: In vivo insecticidal activity against pre-third-instar larval stage of Mythimna separata (Oriental armyworm) in corn leaves assessed as induction of loss of body liquid at 1 mg/ml treated for 3 secs before larval infestation on corn leaves measured after 48 hr by leaf-dipping method; type: functional, organism-based
Mythimna separata [9] = experiment: In vivo insecticidal activity against pre-third-instar larval stage of Mythimna separata (Oriental armyworm) in corn leaves assessed as induction of larval immobility at 1 mg/ml treated for 3 secs before larval infestation on corn leaves measured after 48 hr by leaf-dipping method; type: functional, organism-based

In the case of COC(=O)c1ccccc1C(=O)O[C@@H]1c2cc3c(cc2[C@@H](c2cc(OC)c(OC)c(OC)c2)[C@H]2C(=O)OC[C@@H]21)OCO3, the mortality at 1000 µg/mL (Mythimna separata [1]) is reported as 20.6%, the mortality at 1000 µg/mL (Mythimna separata [2]) is reported as 10% and the Activity (Mythimna separata [3]) is reported as “Active”. For the same molecule, the Activity (Mythimna separata [4]) was “Active”, the Activity (Mythimna separata [5]) was “Active” and the Activity (Mythimna separata [6]) was “Active”. For the same molecule, the mortality at 1000 µg/mL (Mythimna separata [7]) was 38.5%, the Activity (Mythimna separata [8]) was “Active” and the Activity (Mythimna separata [9]) was “Active”.
With COC(=O)c1cccc([N+](=O)[O-])c1C(=O)O[C@H]1c2cc3c(cc2[C@@H](c2cc(OC)c(OC)c(OC)c2)[C@@]2(Cl)C(=O)OC[C@H]12)OCO3 the mortality at 1000 µg/mL (Mythimna separata [1]) was 41.3%, the mortality at 1000 µg/mL (Mythimna separata [2]) was 30% and the Activity (Mythimna separata [3]) was “Active”. The Activity (Mythimna separata [4]) was “Active”, the Activity (Mythimna separata [5]) was “Active” and the Activity (Mythimna separata [6]) was “Active”. The mortality at 1000 µg/mL (Mythimna separata [7]) was 46.4%, the Activity (Mythimna separata [8]) was “Active” and the Activity (Mythimna separata [9]) was “Active”.
In the case of COC(=O)c1ccccc1C(=O)O[C@H]1c2cc3c(cc2[C@@H](c2cc(OC)c(OC)c(OC)c2)[C@@H]2C(=O)OC[C@@H]21)OCO3, the mortality at 1000 µg/mL (Mythimna separata [1]) is reported as 10.3%, the mortality at 1000 µg/mL (Mythimna separata [2]) is reported as 10% and the Activity (Mythimna separata [3]) is reported as “Active”. The Activity (Mythimna separata [4]) was “Active”, the Activity (Mythimna separata [5]) was “Active” and the Activity (Mythimna separata [6]) was “Active”. For the same molecule, the mortality at 1000 µg/mL (Mythimna separata [7]) was 17.8%, the Activity (Mythimna separata [8]) was “Active” and the Activity (Mythimna separata [9]) was “Active”.
CC(=O)O[C@@H]1C[C@H](O)[C@@]23CO[C@@H](O)[C@]1(C)[C@@H]2C[C@@H](O)[C@]1(C)[C@@H]3C(=O)[C@H](OC(C)=O)[C@@]2(C)[C@H](c3ccoc3)C[C@H]3O[C@]321 [TOOSENDANIN] was tested, and the mortality at 1000 µg/mL (Mythimna separata [1]) was 31%, the mortality at 1000 µg/mL (Mythimna separata [2]) was 30% and the mortality at 1000 µg/mL (Mythimna separata [7]) was 50%.
In the case of COC(=O)c1cccc([N+](=O)[O-])c1C(=O)O[C@@H]1c2cc3c(cc2[C@@H](c2cc(OC)c(OC)c(OC)c2)[C@H]2C(=O)OC[C@@H]21)OCO3, the mortality at 1000 µg/mL (Mythimna separata [1]) is reported as 17.2%, the mortality at 1000 µg/mL (Mythimna separata [2]) is reported as 10% and the Activity (Mythimna separata [3]) is reported as “Active”. For the same molecule, the Activity (Mythimna separata [4]) was “Active”, the Activity (Mythimna separata [5]) was “Active” and the Activity (Mythimna separata [6]) was “Active”. For the same molecule, the mortality at 1000 µg/mL (Mythimna separata [7]) was 42.8%, the Activity (Mythimna separata [8]) was “Active” and the Activity (Mythimna separata [9]) was “Active”.
For COC(=O)c1cccc([N+](=O)[O-])c1C(=O)N[C@@H]1c2cc3c(cc2[C@@H](c2cc(OC)c(OC)c(OC)c2)[C@H]2C(=O)OC[C@@H]21)OCO3, the mortality at 1000 µg/mL (Mythimna separata [1]) was 20.6%, the mortality at 1000 µg/mL (Mythimna separata [2]) was 10% and the Activity (Mythimna separata [3]) was “Active”. The Activity (Mythimna separata [4]) was “Active”, the Activity (Mythimna separata [5]) was “Active” and the Activity (Mythimna separata [6]) was “Active”. For the same molecule, the mortality at 1000 µg/mL (Mythimna separata [7]) was 35.7%, the Activity (Mythimna separata [8]) was “Active” and the Activity (Mythimna separata [9]) was “Active”.
COC(=O)c1ccccc1C(=O)Oc1c(OC)cc([C@@H]2c3cc4c(cc3[C@@H](OC(=O)c3ccccc3C(=O)OC)[C@H]3COC(=O)[C@H]23)OCO4)cc1OC was tested, and the mortality at 1000 µg/mL (Mythimna separata [1]) was 17.2%, the mortality at 1000 µg/mL (Mythimna separata [2]) was 16.6% and the Activity (Mythimna separata [3]) was “Active”. For the same molecule, the Activity (Mythimna separata [4]) was “Active”, the Activity (Mythimna separata [5]) was “Active” and the Activity (Mythimna separata [6]) was “Active”. For the same molecule, the mortality at 1000 µg/mL (Mythimna separata [7]) was 21.4%, the Activity (Mythimna separata [8]) was “Active” and the Activity (Mythimna separata [9]) was “Active”.
For COC(=O)c1ccccc1C(=O)Oc1c(OC)cc([C@@H]2c3cc4c(cc3[C@@H](OC(=O)c3c(C(=O)OC)cccc3[N+](=O)[O-])[C@H]3COC(=O)[C@H]23)OCO4)cc1OC, the mortality at 1000 µg/mL (Mythimna separata [1]) was 20.6%, the mortality at 1000 µg/mL (Mythimna separata [2]) was 16.6% and the Activity (Mythimna separata [3]) was “Active”. For the same molecule, the Activity (Mythimna separata [4]) was “Active”, the Activity (Mythimna separata [5]) was “Active” and the Activity (Mythimna separata [6]) was “Active”. The mortality at 1000 µg/mL (Mythimna separata [7]) was 28.5%, the Activity (Mythimna separata [8]) was “Active” and the Activity (Mythimna separata [9]) was “Active”.
COC(=O)c1cccc([N+](=O)[O-])c1C(=O)O[C@H]1c2cc3c(cc2[C@@H](c2cc(OC)c(OC)c(OC)c2)[C@@H]2C(=O)OC[C@@H]21)OCO3 was tested, and the mortality at 1000 µg/mL (Mythimna separata [1]) was 13.7%, the mortality at 1000 µg/mL (Mythimna separata [2]) was 13.3% and the Activity (Mythimna separata [3]) was “Active”. The Activity (Mythimna separata [4]) was “Active”, the Activity (Mythimna separata [5]) was “Active” and the Activity (Mythimna separata [6]) was “Active”. The mortality at 1000 µg/mL (Mythimna separata [7]) was 14.2%, the Activity (Mythimna separata [8]) was “Active” and the Activity (Mythimna separata [9]) was “Active”.
Molecule COc1cc([C@@H]2c3cc4c(cc3[C@H](O)[C@H]3COC(=O)[C@H]23)OCO4)cc(OC)c1OC [PODOFILOX] has a mortality at 1000 µg/mL (Mythimna separata [1]) of 20.6%, a mortality at 1000 µg/mL (Mythimna separata [2]) of 16.6% and a mortality at 1000 µg/mL (Mythimna separata [7]) of 35.7%.
In the case of COC(=O)c1ccccc1C(=O)N[C@@H]1c2cc3c(cc2[C@@H](c2cc(OC)c(OC)c(OC)c2)[C@H]2C(=O)OC[C@@H]21)OCO3, the mortality at 1000 µg/mL (Mythimna separata [1]) is reported as 10.3%, the mortality at 1000 µg/mL (Mythimna separata [2]) is reported as 6.6% and the Activity (Mythimna separata [3]) is reported as “Active”. The Activity (Mythimna separata [4]) was “Active”, the Activity (Mythimna separata [5]) was “Active” and the Activity (Mythimna separata [6]) was “Active”. The mortality at 1000 µg/mL (Mythimna separata [7]) was 42.8%, the Activity (Mythimna separata [8]) was “Active” and the Activity (Mythimna separata [9]) was “Active”.
For COC(=O)c1cccc([N+](=O)[O-])c1C(=O)O[C@H]1c2cc3c(cc2[C@@H](c2cc(OC)c(OC)c(OC)c2)[C@H]2C(=O)OC[C@@H]21)OCO3, the mortality at 1000 µg/mL (Mythimna separata [1]) was 6.9%, the mortality at 1000 µg/mL (Mythimna separata [2]) was 6.6% and the Activity (Mythimna separata [3]) was “Active”. The Activity (Mythimna separata [4]) was “Active”, the Activity (Mythimna separata [5]) was “Active” and the Activity (Mythimna separata [6]) was “Active”. The mortality at 1000 µg/mL (Mythimna separata [7]) was 21.4%, the Activity (Mythimna separata [8]) was “Active” and the Activity (Mythimna separata [9]) was “Active”.
For COC(=O)c1ccccc1C(=O)O[C@H]1c2cc3c(cc2[C@@H](c2cc(OC)c(OC)c(OC)c2)[C@H]2C(=O)OC[C@@H]21)OCO3, the mortality at 1000 µg/mL (Mythimna separata [1]) was 24.1%, the mortality at 1000 µg/mL (Mythimna separata [2]) was 16.6% and the Activity (Mythimna separata [3]) was “Active”. The Activity (Mythimna separata [4]) was “Active”, the Activity (Mythimna separata [5]) was “Active” and the Activity (Mythimna separata [6]) was “Active”. For the same molecule, the mortality at 1000 µg/mL (Mythimna separata [7]) was 35.7%, the Activity (Mythimna separata [8]) was “Active” and the Activity (Mythimna separata [9]) was “Active”.
For COC(=O)c1ccccc1C(=O)O[C@H]1c2cc3c(cc2[C@@H](c2cc(OC)c(OC)c(OC)c2)[C@@]2(Cl)C(=O)OC[C@H]12)OCO3, the mortality at 1000 µg/mL (Mythimna separata [1]) was 31%, the mortality at 1000 µg/mL (Mythimna separata [2]) was 16.6% and the Activity (Mythimna separata [3]) was “Active”. The Activity (Mythimna separata [4]) was “Active”, the Activity (Mythimna separata [5]) was “Active” and the Activity (Mythimna separata [6]) was “Active”. The mortality at 1000 µg/mL (Mythimna separata [7]) was 53.5%, the Activity (Mythimna separata [8]) was “Active” and the Activity (Mythimna separata [9]) was “Active”.

— ChEMBL document CHEMBL3045474, “Natural products-based insecticidal agents 6. Design, semisynthesis, and insecticidal activity of novel monomethyl phthalate derivatives of podophyllotoxin against Mythimna separata Walker in vivo” (2010)
